Measured values reported in patent US20150105252A1, “SUBSTITUTED PYRAZOLES AS HERBICIDES” (E I DU PONT DE NEMOURS AND COMPANY, priority 2013, published 2015).

Legend:
[1] = tested on: Surinam grass; experiment: Test E preemergence; assay type: in vivo, Brachiaria decumbens; details: 21 days, scale 0 to 100
From the text: (§1) Seeds of plant species selected from bermudagrass (Cynodon dactylon), Surinam grass (Brachiaria decumbens), crabgrass, large (large crabgrass, Digitaria sanguinalis), crabgrass, naked (naked crabgrass, Digitaria nuda), foxtail, green (green foxtail, Setaria viridis), johnsongrass (Sorghum halepense), kochia (Kochia scoparia), morningglory (pitted morningglory, Ipomoea lacunosa), nutsedge, purple (purple nutsedge, Cyperus rotundus), ragweed (common ragweed, Ambrosia elation), mustard, black (black mustard, Brassica nigra), guineagrass (Panicum maximum), dallisgrass (Paspalum dilatatum), barnyardgrass (Echinochloa crus-galli), sandbur (southern sandbur, Cenchrus echinatus), sowthistle (common sowthistle, Sonchus oleraceous), ryegrass, Italian (Italian ryegrass, Lolium multiflorum), signalgrass (broadleaf signalgrass, Brachiaria platyphylla), dayflower, VA (Virginia (VA) dayflower, Commelina virginica), bluegrass (annual bluegrass, Poa annua), quackgrass (Elytrigia repens), mallow (common mallow, Malva sylvestris), buckwheat, wild (wild buckwheat, Polygonum convolvulus), leafy spurge (Euphorbia esula), common chickweed (Stellaria media), wild poinsettia (Euphorbia heterophylla), pigweed, palmer (palmer pigweed, Amaranthus palmeri), and pigweed (redroot pigweed, Amaranthus retroflexus) were planted into a blend of loam soil and sand and treated preemergence with test chemicals formulated in a non-phytotoxic solvent mixture which included a surfactant.
(§2) Treated plants and controls were maintained in a greenhouse for 21 days, after which time all species were compared to controls and visually evaluated. Plant response ratings, summarized in Table E, are based on a scale of 0 to 100 where 0 is no effect and 100 is complete control. A dash (-) response means no test result.

[2] = tested on: guineagrass; experiment: Test E preemergence; assay type: in vivo, Panicum maximum; details: 21 days, scale 0 to 100
From the text: as §1, §2

[3] = tested on: corn; experiment: Test F postemergence; assay type: in vivo, Zea mays; details: scale 0 to 100
Outline: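 Plant response is scored by eye relative to controls on a 0 to 100 scale, where 100 means complete control. Preemergence applications were made to seeded silt loam; postemergence ones to seedlings 2 to 18 cm high. Greenhouse holding time was 14 to 21 days.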

[4] = tested on: pigweed; experiment: Test E preemergence; assay type: in vivo, Amaranthus retroflexus; details: 21 days, scale 0 to 100
From the text: as §1, §2

[5] = tested on: buckwheat, wild; experiment: Test E preemergence; assay type: in vivo, Polygonum convolvulus; details: 21 days, scale 0 to 100
From the text: as §1, §2

[6] = tested on: leafy spurge; experiment: Test E preemergence; assay type: in vivo, Euphorbia esula; details: 21 days, scale 0 to 100
From the text: as §1, §2

[7] = tested on: sowthistle; experiment: Test E preemergence; assay type: in vivo, Sonchus oleraceous; details: 21 days, scale 0 to 100
From the text: as §1, §2

CCCc1cc(C(=O)NCC(F)(F)F)nn1Cc1ccnc(C(F)(F)F)c1 [Compound 105]
Plant response rating, Surinam Grass ([1]; 16 g ai/ha): 35
Plant response rating, Surinam Grass ([1]; 31 g ai/ha): 40
Plant response rating, Surinam Grass ([1]; 62 g ai/ha): 80
Plant response rating, Surinam Grass ([1]; 125 g ai/ha): 95
Plant response rating, Surinam Grass ([1]; 250 g ai/ha): 100
Plant response rating, Guineagrass ([2]; 16 g ai/ha): 75
Plant response rating, Guineagrass ([2]; 31 g ai/ha): 90
Plant response rating, Guineagrass ([2]; 62 g ai/ha): 100
Plant response rating, Guineagrass ([2]; 125 g ai/ha): 100
Plant response rating, Guineagrass ([2]; 250 g ai/ha): 100
Plant response rating, Corn ([3]; Postemergence, 31 g ai/ha): 10
Plant response rating, Corn ([3]; Postemergence, 125 g ai/ha): 40
Plant response rating, Corn ([3]; Postemergence, 250 g ai/ha): 80
Plant response rating, Corn ([3]; postemergence, 62 g ai/ha): 30
Plant response rating, Pigweed ([4]; 16 g ai/ha): 100
Plant response rating, Pigweed ([4]; 31 g ai/ha): 100
Plant response rating, Pigweed ([4]; 62 g ai/ha): 100
Plant response rating, Pigweed ([4]; 125 g ai/ha): 100
Plant response rating, Pigweed ([4]; 250 g ai/ha): 100
Plant response rating, Buckwheat, Wild ([5]; 16 g ai/ha): 100
Plant response rating, Buckwheat, Wild ([5]; 31 g ai/ha): 100
Plant response rating, Buckwheat, Wild ([5]; 62 g ai/ha): 100
Plant response rating, Buckwheat, Wild ([5]; 125 g ai/ha): 100
Plant response rating, Buckwheat, Wild ([5]; 250 g ai/ha): 100
Plant response rating, Leafy Spurge ([6]; 16 g ai/ha): 100
Plant response rating, Leafy Spurge ([6]; 31 g ai/ha): 100
Plant response rating, Leafy Spurge ([6]; 62 g ai/ha): 100
Plant response rating, Leafy Spurge ([6]; 125 g ai/ha): 100
Plant response rating, Leafy Spurge ([6]; 250 g ai/ha): 100
Plant response rating, Sowthistle ([7]; 16 g ai/ha): 100
Plant response rating, Sowthistle ([7]; 31 g ai/ha): 100
Plant response rating, Sowthistle ([7]; 62 g ai/ha): 100
Plant response rating, Sowthistle ([7]; 125 g ai/ha): 100
Plant response rating, Sowthistle ([7]; 250 g ai/ha): 100
